{"source": "patent US12016933B2", "about": "“Method for stimulating axonal regeneration” (The Hong Kong University of Science and Technology, priority 2020, dated 2024)", "key": {"DRG neurons [1]": {"test_system": "DRG neurons", "assay": "Axon elongation of cultured DRG neurons treated with inhibitor compounds", "assay_type": "cell-based, mouse", "details": "for axon regrowth / axon regeneration in DRG neuron culture: one day after compound treatment, A-922500 500 nM, pradigastat 1 μM, PF combination 10 μM each; for axon elongation in dissociated primary DRG neuron culture: Atglistatin 10 μM, KLH-45 10 μM (figure legend), vs DMSO vehicle", "experimental": "DRG primary culture and replating were performed as previously described. In brief, for primary culture, L4-L6 DRGs from 7-8 weeks wild-type mice of both genders were dissected and then digested in 0.5% collagenase for 1.5 h. After termination of digestion, DRGs were pipetted 20-30 times in a tube for complete dissociation. Neurobasal-A with B27 as a supplement was used as a medium for DRG culture. Virus was added at 1 day in vitro (DIV1) for genetic manipulation. […]\nFor replating DRG neuron culture, at DIV9-11 of primary DRG culture, cells were gently pipetted on culture dishes. Cells were flushed by 20-30 rounds of pipetting in each well of a 6-well plate. After all the cells were resuspended, they were replated onto a 24-well plate. Fixation and staining were performed 24 h after replating. Tuj1 staining was used to visualize axons and cell bodies of neurons. The lengths of the longest neurites from each DRG neuron were measured manually by NeuronJ in ImageJ. Average lengths of 10-20 neurites from 3 individual mice were used in each group.\nIn the final step of the glycerol phosphate pathway DGAT enzymes catalyze DGs into TGs. To assess the effect of blocking the DGAT enzyme, commercially available, DGAT1 inhibitors were used in culture. A-922500 (500 nM) and pradigastat (1 μM) were individually tested in a culture medium of DRG neurons. A combination of PF-06424439 (10 μM) and PF-046201101 (10 μM) was also tested in a culture medium of DRG neurons. […] Then, a KD experiment was performed by transfecting Dgat1 shRNA (shDgat1) targeting SEQ ID NO: 8, Dgat2 shRNA (shDgat2) targeting SEQ ID NO: 9 into DRG neurons. […] Because axotomy increases Lipin1 expression in RGCs, a study was conducted to determine whether DGAT enzymes were also regulated by axonal injury."}, "DRG neurons [2]": {"test_system": "DRG neurons", "assay": "Lipid droplet formation in cultured DRG neurons (BODIPY staining)", "assay_type": "cell-based, mouse", "details": "cultured adult DRG neurons, three days, vs DMSO vehicle", "experimental": "DRG primary culture and replating were performed as previously described. In brief, for primary culture, L4-L6 DRGs from 7-8 weeks wild-type mice of both genders were dissected and then digested in 0.5% collagenase for 1.5 h. After termination of digestion, DRGs were pipetted 20-30 times in a tube for complete dissociation. Neurobasal-A with B27 as a supplement was used as a medium for DRG culture. Virus was added at 1 day in vitro (DIV1) for genetic manipulation. Atglistatin (10 μM), KLH-45 (1 μM), paradigastat (1 μM) or A-922500 (500 nM) treatment was used for ATGL, DDHD2 or DGAT1 inhibition.\nFor BODIPY staining on cultured DRG neurons, cells were first fixed in 4% PFA for 10 min and permeabilized with 0.1% Triton X-100 in 4% NGS. After cells were blocked, the Tuj1 antibody was applied in blocking buffer and incubated at 4° C. overnight. Coverslips were then washed three times with PBS and incubated with secondary antibodies at room temperature for 2 h. Cells were finally incubated with 200 nM BODIPY (Sigma) in blocking buffer for 30 min before mounting.\nExperiments were performed to manipulate TG lipases in vitro. In cultured adult DRG neurons with vehicle treatment, lipid droplets were barely detected (FIG. 4B), consistent with the notion that neurons constantly turn over TGs with minimum storage. […] Then, the function of TG lipases was examined in axon regeneration in vivo. […]"}, "[3]": {"test_system": "sensory axons in the sciatic nerve", "assay": "Sciatic nerve crush, sensory axon regeneration (SCG10 staining)", "assay_type": "in vivo, mouse", "details": "WT mice, i.p. KLH-45 30 mg/kg/day, Atglistatin 40 mg/kg/day, 5 days before and 2 days after injury; two days regrowth", "experimental": "KLH-45 (30 mg/kg/day) or Atglistatin (40 mg/kg/day) were delivered by intraperitoneal injection for 5 consecutive days before injury and 2 days after injury. The same dosage of DMSO injection was used as a control treatment. Sciatic nerve injury was performed as previously described. Briefly, after an incision was made on the skin at the middle thigh level, muscle was gently dissected to expose the sciatic nerve. Then, the sciatic nerve was crushed for 10 s by forceps (Dumont #2; Fine Science Tools). For the sham group, the sciatic nerve was only exposed but not crushed.\nSciatic nerve sections with SCG10 staining were used to quantify the regeneration index. A column with a width of 50 pixels was drawn at different distances from the lesion center, and the average intensity of SCG10 staining was measured using ImageJ. The distance between the lesion center and the column with half the intensity of the lesion center was considered as the regeneration index.\nConsistently, Ddhd2 KD in isolated DRG neurons suppressed axon elongation in culture, and as a positive control Lipin1 KD increased the axon length. Then, vehicle KLH-45, or KLH-45 combined with Atglistatin was systematically administered into WT mice. The sciatic nerve was then crushed, and the sensory axons were allowed to regrow for two days before examination. […]"}, "adult DRG neurons": {"test_system": "adult DRG neurons", "assay": "Axon elongation of replated adult DRG neurons after shRNA/AAV treatment (Tuj1 staining, longest neurite)", "assay_type": "cell-based, mouse", "details": "for effect on axon regrowth / axon growth of DRG neurons: shRNA in WT DRG neurons vs control shRNA"}, "cortical neurons [4]": {"test_system": "cortical neurons", "assay": "Lipid profile of cultured cortical neurons by UPLC-MS", "assay_type": "cell-based, mouse", "experimental": "(§1) Cortical neurons were cultured as previously described. In short, the cortex from E18 C57/B6 mice of both genders was dissected and digested in 0.5 mg/mL papain for 30 min. Then, 100 μL fetal bovine serum (HyClone) was added to inactivate papain. The cells were then placed into Neurobasal medium (Gibco), supplemented with B27 (Gibco) and 1% penicillin-streptomycin (10,000 U/mL; Gibco). AraC (100 nM; Sigma) was used to inhibit glial proliferation in DIV1-DIV3. After 10 days of culture with AAV-scramble, AAV-shLipin1, AAV-shDgat1 or AAV-shDgat2, cells were harvested, and then TG or PC levels were measured according to the manufacturer's protocol (ab65336 and ab83377).\nLipid extraction was performed using the Folch method. Cortical neurons were lysed in a 2:1 chloroform:methanol mixture. After the upper phase was siphoned, the solvent was dried by line blowing with nitrogen. Lipid extracts were analyzed using a Synapt G2 HDMS mass spectrometer coupled with an ACQUITY UPLC system (Waters, Milford, USA). The UPLC separation was carried out using a Charge Surface Hybrid column (particle size: 1.7 μm; length: 100 mm; i.d.: 2.1 mm). The mobile phase consisted of solvent A (0.1% formic acid in water, v/v) and solvent B (0.1% formic acid in acetonitrile, v/v), each with 10 mM ammonium acetate. The elution gradient conditions were as follows: 0 min, 40% B; 2 min, 43% B; 2-2.1 min, 50% B; 12 min, 54% B; 12.1 min, 70% B; 12.1-18 min, 99% B. The flow rate was 0.2 mL min^−1, and the injection volume was 2 μL. A two minutes post-run time was set to fully equilibrate the column. Column temperature and sample chamber temperature were set to 55° C. and 6° C., respectively. […]\nBecause PAP activity is critical for Lipin1-dependent axon growth, it was hypothesized that Lipin1 may control axon regrowth by regulating glycerolipid synthesis in neurons. […] Glycerolipid levels were directly measured after eliminating glial cells by adding cytosine arabinoside (AraC) to the culture. […] Lipid extraction of cortical neurons was analyzed by ultra-performance liquid chromatography-mass spectrometry (UPLC-MS) system. […]"}, "cortical neurons [5]": {"test_system": "cortical neurons", "assay": "Total TG and PC levels in cortical neurons by enzymatic hydrolysis assays", "assay_type": "cell-based, mouse", "details": "lipid hydrolysis assay, DGAT1 or DGAT2 depletion", "experimental": "as §1\nBecause UPLC-MS might not identify all lipid molecular species, the total TG and PC levels were further measured by performing enzymatic hydrolysis assays. TG levels were decreased by 40% after Lipin1 depletion (FIG. 3E). […] Because injury triggers Lipin1 elevation in RGCs, the data on lipid changes after Lipin1 KD indicate that axotomy may program lipid metabolism to increase triglyceride and decrease PL production. This injury-triggered bias in lipid synthesis may contribute to the declined axon growth in CNS neurons. By depleting Lipin1, injured neurons may redirect two arms of the branch and shift lipid storage to membrane lipid production for axon regrowth."}, "[6]": {"details": "after Dgat1 KD, compared to the control shRNA group"}}, "data": [{"compound": "O=C(Nc1ccccc1)Nc1ccc(-c2ccc(C(=O)[C@@H]3CCC[C@H]3C(=O)O)cc2)cc1", "note": "[A-922500]", "values": [{"measurement": "axon regrowth / axon regeneration in DRG neuron culture", "setting": "DRG neurons [1]", "value": "demonstrated axon regrowth"}]}, {"compound": "CN(C)C(=O)Nc1cccc(-c2ccc(N(C)C)cc2)c1", "note": "[Atglistatin]", "values": [{"measurement": "TG storage in neurons (lipid droplet formation)", "setting": "DRG neurons [2]", "value": "dramatically increased TG storage"}, {"measurement": "axon elongation in dissociated primary DRG neuron culture", "setting": "DRG neurons [1]", "value": "significantly inhibited axon elongation"}]}, {"compound": "O=C(N(CCc1ccccc1)C1CCCCC1)n1ncc(-c2ccc(OC(F)(F)F)cc2)n1", "note": "[KLH-45]", "values": [{"measurement": "TG storage in neurons (lipid droplet formation)", "setting": "DRG neurons [2]", "value": "dramatically increased TG storage"}, {"measurement": "axon elongation in dissociated primary DRG neuron culture", "setting": "DRG neurons [1]", "value": "significantly inhibited axon elongation"}, {"measurement": "spontaneous sensory axon regeneration after sciatic nerve crush", "setting": "[3]", "value": "modestly inhibited"}]}, {"compound": "O=C(O)C[C@H]1CC[C@H](c2ccc(-c3ccc(Nc4ccc(C(F)(F)F)nc4)cn3)cc2)CC1", "note": "[pradigastat]", "values": [{"measurement": "axon regrowth / axon regeneration in DRG neuron culture", "setting": "DRG neurons [1]", "value": "demonstrated axon regrowth"}]}, {"compound": "Lipin1 shRNA: short hairpin RNA against Lipin1, plasmid transfected into DRG neurons (CGGAACTCTGTAGACAGAAT)", "values": [{"measurement": "axon elongation enhanced by", "setting": "adult DRG neurons; shRNA plasmid transfected for three days, replated, fixed 24 h after replating, vs control shRNA", "value": 20, "unit": "%"}]}, {"compound": "shDgat1: Dgat1 shRNA targeting SEQ ID NO: 8 (GCCCTTCAAGGATATGGACT; the letters are possibly those of the target site)", "values": [{"measurement": "effect on axon regrowth / axon growth of DRG neurons", "setting": "adult DRG neurons", "value": "significantly boosted axon growth"}, {"measurement": "identified TG species levels", "setting": "cortical neurons [4]; after Dgat1 KD vs control shRNA", "value": "decreased"}, {"measurement": "PC(29:1) increase", "setting": "cortical neurons [4]; [6]", "value": "more than eightfold"}, {"measurement": "PC(36:2) increase", "setting": "cortical neurons [4]; [6]", "value": "more than eightfold"}, {"measurement": "PC content", "setting": "cortical neurons [5]", "value": "increased"}, {"measurement": "TG level in neurons", "setting": "cortical neurons [5]", "value": "decreased the TG level"}]}, {"compound": "shDgat2: Dgat2 shRNA targeting SEQ ID NO: 9 (GCTACTTCCGAGACTACTTT; target site or template, no part of the molecule)", "values": [{"measurement": "effect on axon regrowth / axon growth of DRG neurons", "setting": "adult DRG neurons", "value": "significantly boosted axon growth"}, {"measurement": "PC content", "setting": "cortical neurons [5]", "value": "increased"}, {"measurement": "TG level in neurons", "setting": "cortical neurons [5]", "value": "decreased the TG level"}]}]}
